Measurements published in PubChem BioAssay (NCI).
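Five concentrations, 48 hours, 96-well plates. TGI marks complete inhibition of growth.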

Assays:
Assay in all cases: NCI tumour cell line growth inhibition, 48 h
HCT-15 colon = test system: HCT-15 colon
OVCAR-8 ovarian = test system: OVCAR-8 ovarian
MDA-N = test system: MDA-N
SK-MEL-28 melanoma = test system: SK-MEL-28 melanoma
SNB-19 CNS = test system: SNB-19 CNS
SK-OV-3 ovarian = test system: SK-OV-3 ovarian
SK-MEL-5 melanoma = test system: SK-MEL-5 melanoma
K-562 leukemia = test system: K-562 leukemia
SK-MEL-2 melanoma = test system: SK-MEL-2 melanoma
IGROV1 ovarian = test system: IGROV1 ovarian
M14 melanoma = test system: M14 melanoma
MDA-MB-231 breast = test system: MDA-MB-231 breast
UACC-62 melanoma = test system: UACC-62 melanoma
NCI-H522 lung = test system: NCI-H522 lung
OVCAR-3 ovarian = test system: OVCAR-3 ovarian
786-0 renal = test system: 786-0 renal
PC-3 prostate = test system: PC-3 prostate
HOP-92 NSCLC = test system: HOP-92 NSCLC
MOLT-4 leukemia = test system: MOLT-4 leukemia
SF-539 CNS = test system: SF-539 CNS
LOX IMVI melanoma = test system: LOX IMVI melanoma
OVCAR-4 ovarian = test system: OVCAR-4 ovarian
U251 CNS = test system: U251 CNS
NCI/ADR-RES ovarian = test system: NCI/ADR-RES ovarian
A549 NSCLC = test system: A549 NSCLC
OVCAR-5 ovarian = test system: OVCAR-5 ovarian
HL-60(TB) leukemia = test system: HL-60(TB) leukemia
HS 578T breast = test system: HS 578T breast
ACHN renal = test system: ACHN renal
RXF 393 renal = test system: RXF 393 renal
RPMI-8226 leukemia = test system: RPMI-8226 leukemia
EKVX NSCLC = test system: EKVX NSCLC
HCC-2998 colon = test system: HCC-2998 colon
UACC-257 melanoma = test system: UACC-257 melanoma
SR leukemia = test system: SR leukemia
COLO 205 colon = test system: COLO 205 colon
NCI-H23 lung = test system: NCI-H23 lung
HOP-62 NSCLC = test system: HOP-62 NSCLC
NCI-H226 lung = test system: NCI-H226 lung
DU-145 prostate = test system: DU-145 prostate
SNB-75 CNS = test system: SNB-75 CNS
CAKI-1 renal = test system: CAKI-1 renal
CCRF-CEM leukemia = test system: CCRF-CEM leukemia
UO-31 renal = test system: UO-31 renal
MDA-MB-435 = test system: MDA-MB-435
TK-10 renal = test system: TK-10 renal
MCF7 breast = test system: MCF7 breast
SW-620 colon = test system: SW-620 colon
HCT-116 colon = test system: HCT-116 colon
T-47D breast = test system: T-47D breast
HT29 colon = test system: HT29 colon
SF-295 CNS = test system: SF-295 CNS
KM12 colon = test system: KM12 colon
SF-268 CNS = test system: SF-268 CNS
SN12C renal = test system: SN12C renal
NCI-H460 lung = test system: NCI-H460 lung
A498 renal = test system: A498 renal
MALME-3M melanoma = test system: MALME-3M melanoma

Structure (SMILES): Cc1ccc(S(=O)(=O)NC2C(=O)c3ccccc3C(=O)C2n2ccnc2)cc1 (stereo not given)
- TGI (HCT-15 colon): > 100 µM
- TGI (OVCAR-8 ovarian): > 100 µM
- TGI (MDA-N): 29 µM
- TGI (SK-MEL-28 melanoma): > 100 µM
- TGI (SNB-19 CNS): > 100 µM
- TGI (SK-OV-3 ovarian): > 100 µM
- TGI (SK-MEL-5 melanoma): > 100 µM
- TGI (K-562 leukemia): > 100 µM
- TGI (SK-MEL-2 melanoma): > 100 µM
- TGI (IGROV1 ovarian): > 100 µM
- TGI (M14 melanoma): > 100 µM
- TGI (MDA-MB-231 breast): 29.5 µM
- TGI (UACC-62 melanoma): > 100 µM
- TGI (NCI-H522 lung): 5.77 µM
- TGI (OVCAR-3 ovarian): > 100 µM
- TGI (786-0 renal): 32.8 µM
- TGI (PC-3 prostate): > 100 µM
- TGI (HOP-92 NSCLC): > 100 µM
- TGI (MOLT-4 leukemia): 80.8 µM
- TGI (SF-539 CNS): > 100 µM
- TGI (LOX IMVI melanoma): 25 µM
- TGI (OVCAR-4 ovarian): > 100 µM
- TGI (U251 CNS): > 100 µM
- TGI (NCI/ADR-RES ovarian): > 100 µM
- TGI (A549 NSCLC): > 100 µM
- TGI (OVCAR-5 ovarian): > 100 µM
- TGI (HL-60(TB) leukemia): 46.4 µM
- TGI (HS 578T breast): > 100 µM
- TGI (ACHN renal): > 100 µM
- TGI (RXF 393 renal): > 100 µM
- TGI (RPMI-8226 leukemia): > 100 µM
- TGI (EKVX NSCLC): > 100 µM
- TGI (HCC-2998 colon): > 100 µM
- TGI (UACC-257 melanoma): > 100 µM
- TGI (SR leukemia): > 100 µM
- TGI (COLO 205 colon): > 100 µM
- TGI (NCI-H23 lung): > 100 µM
- TGI (HOP-62 NSCLC): > 100 µM
- TGI (NCI-H226 lung): > 100 µM
- TGI (DU-145 prostate): 30.7 µM
- TGI (SNB-75 CNS): > 100 µM
- TGI (CAKI-1 renal): > 100 µM
- TGI (CCRF-CEM leukemia): 52.9 µM
- TGI (UO-31 renal): > 100 µM
- TGI (MDA-MB-435): 33 µM
- TGI (TK-10 renal): > 100 µM
- TGI (MCF7 breast): > 100 µM
- TGI (SW-620 colon): > 100 µM
- TGI (HCT-116 colon): 53.1 µM
- TGI (T-47D breast): 38.8 µM
- TGI (HT29 colon): > 100 µM
- TGI (SF-295 CNS): > 100 µM
- TGI (KM12 colon): > 100 µM
- TGI (SF-268 CNS): > 100 µM
- TGI (SN12C renal): 28.3 µM
- TGI (NCI-H460 lung): > 100 µM

Structure (SMILES): CC1=NN(c2cccc(Cl)c2)C2(SCC(=O)N2c2nc3ccccc3s2)/C1=C\c1ccccc1 (stereo not given)
- TGI (HCT-15 colon): 37.4 µM
- TGI (OVCAR-8 ovarian): 45.7 µM
- TGI (MDA-N): 42.3 µM
- TGI (SK-MEL-28 melanoma): > 100 µM
- TGI (SK-OV-3 ovarian): 55.1 µM
- TGI (SK-MEL-5 melanoma): 30.3 µM
- TGI (K-562 leukemia): 54.4 µM
- TGI (SK-MEL-2 melanoma): 46.7 µM
- TGI (IGROV1 ovarian): 58.7 µM
- TGI (M14 melanoma): 70.1 µM
- TGI (MDA-MB-231 breast): 55.5 µM
- TGI (NCI-H522 lung): 34.6 µM
- TGI (OVCAR-3 ovarian): > 100 µM
- TGI (786-0 renal): 31 µM
- TGI (PC-3 prostate): 64.2 µM
- TGI (HOP-92 NSCLC): 25.6 µM
- TGI (MOLT-4 leukemia): 60.2 µM
- TGI (SF-539 CNS): > 100 µM
- TGI (LOX IMVI melanoma): 66.6 µM
- TGI (OVCAR-4 ovarian): 62.7 µM
- TGI (U251 CNS): 44.3 µM
- TGI (NCI/ADR-RES ovarian): 83.3 µM
- TGI (OVCAR-5 ovarian): 58.8 µM
- TGI (HL-60(TB) leukemia): 67.7 µM
- TGI (HS 578T breast): 55.4 µM
- TGI (ACHN renal): 48.4 µM
- TGI (RXF 393 renal): 40.6 µM
- TGI (RPMI-8226 leukemia): 46.8 µM
- TGI (EKVX NSCLC): > 100 µM
- TGI (HCC-2998 colon): 29.3 µM
- TGI (UACC-257 melanoma): 85.2 µM
- TGI (SR leukemia): 63.3 µM
- TGI (NCI-H23 lung): 51.9 µM
- TGI (HOP-62 NSCLC): 56.7 µM
- TGI (NCI-H226 lung): 97.4 µM
- TGI (DU-145 prostate): 45.3 µM
- TGI (SNB-75 CNS): > 100 µM
- TGI (CAKI-1 renal): 53 µM
- TGI (CCRF-CEM leukemia): > 100 µM
- TGI (UO-31 renal): 63.6 µM
- TGI (MDA-MB-435): 38.9 µM
- TGI (TK-10 renal): > 100 µM
- TGI (MCF7 breast): 84.3 µM
- TGI (SW-620 colon): 37.3 µM
- TGI (HCT-116 colon): 29.4 µM
- TGI (T-47D breast): > 100 µM
- TGI (A498 renal): 51.8 µM
- TGI (HT29 colon): 44.8 µM
- TGI (SF-295 CNS): 81.2 µM
- TGI (KM12 colon): 32.2 µM
- TGI (SF-268 CNS): 54.4 µM
- TGI (NCI-H460 lung): 32.4 µM

Structure (SMILES): Cc1coc2c1[C@@H](O)[C@@]1(C)[C@H](CCC[C@@H]1C)C2
- TGI (HCT-15 colon): > 100 µM
- TGI (OVCAR-8 ovarian): 47.8 µM
- TGI (MDA-N): 64.1 µM
- TGI (SK-MEL-28 melanoma): > 100 µM
- TGI (SNB-19 CNS): > 100 µM
- TGI (MALME-3M melanoma): 99 µM
- TGI (SK-OV-3 ovarian): > 100 µM
- TGI (SK-MEL-5 melanoma): 77.5 µM
- TGI (K-562 leukemia): 74.7 µM
- TGI (IGROV1 ovarian): > 100 µM
- TGI (M14 melanoma): 43.9 µM
- TGI (MDA-MB-231 breast): 59.3 µM
- TGI (UACC-62 melanoma): > 100 µM
- TGI (NCI-H522 lung): 73.5 µM
- TGI (OVCAR-3 ovarian): 64.8 µM
- TGI (786-0 renal): > 100 µM
- TGI (PC-3 prostate): > 100 µM
- TGI (HOP-92 NSCLC): > 100 µM
- TGI (MOLT-4 leukemia): 89.4 µM
- TGI (SF-539 CNS): 47 µM
- TGI (LOX IMVI melanoma): > 100 µM
- TGI (OVCAR-4 ovarian): > 100 µM
- TGI (NCI/ADR-RES ovarian): 54.5 µM
- TGI (OVCAR-5 ovarian): > 100 µM
- TGI (HL-60(TB) leukemia): 62 µM
- TGI (HS 578T breast): > 100 µM
- TGI (ACHN renal): > 100 µM
- TGI (RXF 393 renal): 55 µM
- TGI (RPMI-8226 leukemia): 90.6 µM
- TGI (EKVX NSCLC): > 100 µM
- TGI (HCC-2998 colon): > 100 µM
- TGI (UACC-257 melanoma): 84.3 µM
- TGI (SR leukemia): > 100 µM
- TGI (COLO 205 colon): 60.1 µM
- TGI (NCI-H23 lung): > 100 µM
- TGI (HOP-62 NSCLC): 93.2 µM
- TGI (NCI-H226 lung): 76.3 µM
- TGI (DU-145 prostate): > 100 µM
- TGI (CAKI-1 renal): > 100 µM
- TGI (CCRF-CEM leukemia): > 100 µM
- TGI (MDA-MB-435): 38.1 µM
- TGI (TK-10 renal): > 100 µM
- TGI (MCF7 breast): > 100 µM
- TGI (SW-620 colon): > 100 µM
- TGI (HCT-116 colon): > 100 µM
- TGI (T-47D breast): > 100 µM
- TGI (HT29 colon): > 100 µM
- TGI (SF-295 CNS): > 100 µM
- TGI (KM12 colon): > 100 µM
- TGI (SF-268 CNS): > 100 µM
- TGI (SN12C renal): 75.7 µM
- TGI (NCI-H460 lung): > 100 µM
